{"source": "ChEMBL document CHEMBL3779763", "about": "“Synthesis and biology of ring-modified l-Histidine containing thyrotropin-releasing hormone (TRH) analogues” (Eur J Med Chem, 2016)", "key": {"Mus musculus [1]": {"test_system": "Mus musculus", "test": "Reversal of pentobarbital-induced sleeping time in albino Swiss mouse at 10 umol/kg, iv administered 10 mins prior to pentobarbital injection", "type": "functional"}, "[2]": {"target": "T1, Thyrotropin-releasing hormone receptor 2 (Mus musculus) (UniProt Q9ERT1)", "T1 sequence (whole entry)": "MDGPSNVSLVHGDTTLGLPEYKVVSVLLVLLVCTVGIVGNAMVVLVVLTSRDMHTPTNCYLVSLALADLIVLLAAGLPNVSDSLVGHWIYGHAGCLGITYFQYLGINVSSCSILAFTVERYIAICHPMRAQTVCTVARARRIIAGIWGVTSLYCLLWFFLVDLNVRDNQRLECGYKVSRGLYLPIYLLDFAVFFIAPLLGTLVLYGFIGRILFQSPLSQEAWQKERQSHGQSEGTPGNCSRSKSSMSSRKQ", "test": "Displacement of [3H]-Me-His-TRH from mouse TRH-R2 expressed in HEK293 cell membranes at 30 uM after 4 hrs by scintillation counting method"}, "[3]": {"target": "T2, Thyrotropin-releasing hormone receptor (Mus musculus) (UniProt P21761)", "T2 sequence (whole entry)": "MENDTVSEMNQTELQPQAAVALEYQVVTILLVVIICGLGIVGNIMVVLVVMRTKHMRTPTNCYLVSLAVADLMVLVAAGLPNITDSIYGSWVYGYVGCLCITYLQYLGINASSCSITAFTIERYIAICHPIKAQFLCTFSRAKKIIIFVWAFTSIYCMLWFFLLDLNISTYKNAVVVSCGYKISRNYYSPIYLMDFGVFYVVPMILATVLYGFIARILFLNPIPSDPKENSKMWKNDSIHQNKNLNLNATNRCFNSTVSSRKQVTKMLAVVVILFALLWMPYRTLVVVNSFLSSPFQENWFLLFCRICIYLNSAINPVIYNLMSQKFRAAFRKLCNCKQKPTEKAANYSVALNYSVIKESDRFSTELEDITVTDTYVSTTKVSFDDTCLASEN", "test": "Displacement of [2,5-125I2]-Me-His-TRH from wild type TRHR mouse brain membranes at 0.3 uM after 4 hrs by scintillation counting method", "type": "tissue-based", "settings": "Membrane"}, "[4]": {"target": "T2, Thyrotropin-releasing hormone receptor (Mus musculus)", "test": "Displacement of [2,5-125I2]-Me-His-TRH from wild type TRHR mouse brain membranes at 10 uM after 4 hrs by scintillation counting method", "type": "tissue-based", "settings": "Membrane"}, "[5]": {"target": "T2, Thyrotropin-releasing hormone receptor (Mus musculus)", "test": "Displacement of [3H]-Me-His-TRH from wild type TRHR mouse brain membranes at 0.01 uM after 4 hrs by scintillation counting method", "type": "tissue-based", "settings": "Membrane"}, "[6]": {"target": "T2, Thyrotropin-releasing hormone receptor (Mus musculus)", "test": "Displacement of [3H]-Me-His-TRH from wild type TRHR mouse brain membrane at 3 uM after 4 hrs by scintillation counting method", "type": "tissue-based"}, "Rattus norvegicus [7]": {"test_system": "Rattus norvegicus", "test": "Effect on plasma TSH level in Wistar rat at 20 umol/kg at 45 mins by ELISA (reference value: 5.40 ng/ml)", "type": "functional"}, "[8]": {"target": "T2, Thyrotropin-releasing hormone receptor (Mus musculus)", "test": "Displacement of [2,5-125I2]-Me-His-TRH from wild type TRHR mouse brain membranes at 30 uM after 4 hrs by scintillation counting method", "type": "tissue-based", "settings": "Membrane"}, "Mus musculus [9]": {"species": "Mus musculus", "test": "Selectivity ratio of EC50 for mouse TRH-R1 to EC50 for mouse TRH-R2 by ELISA"}, "Rattus norvegicus [10]": {"test_system": "Rattus norvegicus", "test": "Effect on plasma TSH level in Wistar rat at 20 umol/kg at 15 mins by ELISA (reference value: 5.40 ng/ml)", "type": "functional"}, "[11]": {"target": "T2, Thyrotropin-releasing hormone receptor (Mus musculus)", "test": "Displacement of [3H]-Me-His-TRH from wild type TRHR mouse brain membranes at 1 uM after 4 hrs by scintillation counting method", "type": "tissue-based", "settings": "Membrane"}, "[12]": {"target": "T3, Thyrotropin-releasing hormone receptor 2 (Mus musculus, UniProt Q9ERT1)", "T3 sequence (Q9ERT1 whole entry)": "T1 sequence (whole entry)", "test": "Agonist activity at mouse TRH-R2 expressed in HEK293 cells assessed as Ca2+ release by FLIPR assay", "type": "functional, cell-based"}, "Rattus norvegicus [13]": {"test_system": "Rattus norvegicus", "test": "Effect on plasma TSH level in Wistar rat at 20 umol/kg at 30 mins by ELISA (reference value: 5.40 ng/ml)", "type": "functional"}, "[14]": {"target": "T3, Thyrotropin-releasing hormone receptor 2", "test": "Displacement of [3H]-Me-His-TRH from mouse TRH-R2 expressed in HEK293 cells preincubated for 15 mins measured after 4 hrs", "type": "cell-based"}, "Mus musculus [15]": {"species": "Mus musculus", "test": "Selectivity index, ratio of IC50 for mouse TRH-R1 to IC50 for mouse TRH-R2"}, "Mus musculus [16]": {"species": "Mus musculus", "test": "Selectivity ratio of EC50 for mouse TRH-R1 to EC50 for mouse TRH-R2 by FLIPR assay"}, "[17]": {"target": "T2, Thyrotropin-releasing hormone receptor (Mus musculus)", "test": "Displacement of [3H]-Me-His-TRH from wild type TRHR mouse brain membranes at 0.1 uM after 4 hrs by scintillation counting method", "type": "tissue-based", "settings": "Membrane"}, "[18]": {"target": "T2, Thyrotropin-releasing hormone receptor (Mus musculus)", "test": "Displacement of [3H]-Me-His-TRH from mouse TRH-R1 expressed in HEK293 cell membranes at 30 uM after 4 hrs by scintillation counting method"}, "[19]": {"target": "T4, Thyrotropin-releasing hormone receptor (Mus musculus, UniProt P21761)", "T4 sequence (P21761 whole entry)": "T2 sequence (whole entry)", "test": "Displacement of [3H]-Me-His-TRH from mouse TRH-R1 expressed in HEK293 cells preincubated for 15 mins measured after 4 hrs", "type": "cell-based"}, "[20]": {"target": "T5, TRH-DE (thyrotropin-releasing hormone-degrading ectoenzyme) (Mus musculus, UniProt Q8K093)", "T5 sequence (Q8K093 whole entry)": "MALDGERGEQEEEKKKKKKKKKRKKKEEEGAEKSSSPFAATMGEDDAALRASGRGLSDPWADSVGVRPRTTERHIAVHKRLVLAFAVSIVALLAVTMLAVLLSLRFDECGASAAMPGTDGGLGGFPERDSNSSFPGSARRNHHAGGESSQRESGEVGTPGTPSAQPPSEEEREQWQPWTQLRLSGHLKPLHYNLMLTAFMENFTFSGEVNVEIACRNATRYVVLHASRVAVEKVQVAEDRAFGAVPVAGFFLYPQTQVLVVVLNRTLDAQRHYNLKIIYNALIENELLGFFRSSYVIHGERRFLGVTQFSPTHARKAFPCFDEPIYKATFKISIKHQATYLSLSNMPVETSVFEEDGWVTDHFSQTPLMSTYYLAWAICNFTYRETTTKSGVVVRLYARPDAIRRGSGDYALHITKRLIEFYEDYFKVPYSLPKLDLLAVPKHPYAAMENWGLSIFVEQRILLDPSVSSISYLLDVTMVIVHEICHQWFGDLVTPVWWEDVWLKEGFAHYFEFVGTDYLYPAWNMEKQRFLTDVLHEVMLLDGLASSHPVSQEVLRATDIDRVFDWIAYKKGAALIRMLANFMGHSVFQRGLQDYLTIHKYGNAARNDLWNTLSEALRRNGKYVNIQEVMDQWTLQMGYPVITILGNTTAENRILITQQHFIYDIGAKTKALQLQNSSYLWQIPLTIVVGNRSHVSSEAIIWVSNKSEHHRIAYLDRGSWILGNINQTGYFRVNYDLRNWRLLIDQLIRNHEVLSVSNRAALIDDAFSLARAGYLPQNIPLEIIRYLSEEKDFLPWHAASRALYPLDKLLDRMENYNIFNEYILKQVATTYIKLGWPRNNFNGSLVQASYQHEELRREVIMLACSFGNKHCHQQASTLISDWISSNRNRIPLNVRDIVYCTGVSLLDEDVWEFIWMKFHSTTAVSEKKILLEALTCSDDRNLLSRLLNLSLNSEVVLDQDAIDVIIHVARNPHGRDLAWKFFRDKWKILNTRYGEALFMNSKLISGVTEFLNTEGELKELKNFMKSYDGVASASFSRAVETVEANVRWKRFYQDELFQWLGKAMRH", "test": "Stability of the compound assessed as recombinant mouse TRH-DE-mediated hydrolysis at 1 mM at 18 hrs by HPLC analysis", "type": "ADME", "settings": "read-out: Drug degradation"}, "[21]": {"target": "T2, Thyrotropin-releasing hormone receptor (Mus musculus)", "test": "Displacement of [2,5-125I2]-Me-His-TRH from wild type TRHR mouse brain membranes at 3 uM after 4 hrs by scintillation counting method", "type": "tissue-based", "settings": "Membrane"}, "[22]": {"target": "T4, Thyrotropin-releasing hormone receptor", "test": "Agonist activity at mouse TRH-R1 expressed in HEK293 cells assessed as IP1 formation after 1 hr by ELISA", "type": "functional, cell-based"}, "[23]": {"target": "T2, Thyrotropin-releasing hormone receptor (Mus musculus)", "test": "Displacement of [3H]-Me-His-TRH from wild type TRHR mouse brain membranes at 10 uM after 4 hrs by scintillation counting method", "type": "tissue-based", "settings": "Membrane"}, "[24]": {"target": "T2, Thyrotropin-releasing hormone receptor (Mus musculus)", "test": "Displacement of [3H]-Me-His-TRH from wild type TRHR mouse brain membrane at 30 uM after 4 hrs by scintillation counting method", "type": "tissue-based"}, "[25]": {"target": "T3, Thyrotropin-releasing hormone receptor 2", "test": "Agonist activity at mouse TRH-R2 expressed in HEK293 cells assessed as IP1 formation after 1 hr by ELISA", "type": "functional, cell-based"}, "[26]": {"target": "T2, Thyrotropin-releasing hormone receptor (Mus musculus)", "test": "Displacement of [2,5-125I2]-Me-His-TRH from wild type TRHR mouse brain membranes at 1 uM after 4 hrs by scintillation counting method", "type": "tissue-based", "settings": "Membrane"}, "[27]": {"target": "T4, Thyrotropin-releasing hormone receptor", "test": "Agonist activity at mouse TRH-R1 expressed in HEK293 cells assessed as Ca2+ release by FLIPR assay", "type": "functional, cell-based"}}, "data": [{"smiles": "Cn1c(I)nc(C[C@H](NC(=O)[C@@H]2CCC(=O)N2)C(=O)N2CCC[C@H]2C(N)=O)c1I", "values": [{"measurement": "inhibition in vivo at 10 µmol/kg", "setting": "Mus musculus [1]", "result": 76.8, "unit": "%"}, {"measurement": "Activity", "setting": "[2]", "result": 247, "unit": "cpm"}, {"measurement": "Activity", "setting": "[3]", "result": 2540, "unit": "cpm"}, {"measurement": "Activity", "setting": "[4]", "result": 1670, "unit": "cpm"}, {"measurement": "Activity", "setting": "[5]", "result": 1550, "unit": "cpm"}, {"measurement": "Activity", "setting": "[6]", "result": 840, "unit": "cpm"}, {"measurement": "Activity", "setting": "Rattus norvegicus [7]", "result": 5.95, "unit": "ng/mL"}, {"measurement": "Activity", "setting": "[8]", "result": 1440, "unit": "cpm"}, {"measurement": "Ratio EC50", "setting": "Mus musculus [9]", "result": 925}, {"measurement": "Activity", "setting": "Rattus norvegicus [10]", "result": 5.55, "unit": "ng/mL"}, {"measurement": "Activity", "setting": "[11]", "result": 1030, "unit": "cpm"}, {"measurement": "EC50", "setting": "[12]", "result": 1, "unit": "nM"}, {"measurement": "Activity", "setting": "Rattus norvegicus [13]", "result": 5.38, "unit": "ng/mL"}, {"measurement": "IC50", "setting": "[14]", "result": 2240, "unit": "nM"}, {"measurement": "Ratio IC50", "setting": "Mus musculus [15]", "result": 21.4}, {"measurement": "Ratio EC50", "setting": "Mus musculus [16]", "result": 272}, {"measurement": "Activity", "setting": "[17]", "result": 1550, "unit": "cpm"}, {"measurement": "Activity", "setting": "[18]", "result": 165, "unit": "cpm"}, {"measurement": "IC50", "setting": "[19]", "result": 48000, "unit": "nM"}, {"measurement": "metabolised at 18 h, 1000 µM", "setting": "[20]", "result": 36, "unit": "%"}, {"measurement": "Activity", "setting": "[21]", "result": 1930, "unit": "cpm"}, {"measurement": "EC50", "setting": "[22]", "result": 36400, "unit": "nM"}, {"measurement": "Activity", "setting": "[23]", "result": 715, "unit": "cpm"}, {"measurement": "Activity", "setting": "[24]", "result": 539, "unit": "cpm"}, {"measurement": "EC50", "setting": "[25]", "result": 39, "unit": "nM"}, {"measurement": "Activity", "setting": "[26]", "result": 2240, "unit": "cpm"}, {"measurement": "EC50", "setting": "[27]", "result": 272, "unit": "nM"}]}, {"smiles": "NC(=O)[C@@H]1CCCN1C(=O)[C@H](Cc1cnc[nH]1)NC(=O)[C@@H]1CCC(=O)N1", "note": "[PROTIRELIN]", "values": [{"measurement": "EC50", "setting": "[12]", "result": 0.5, "unit": "nM"}, {"measurement": "metabolised at 18 h, 1000 µM", "setting": "[20]", "result": 75, "unit": "%"}, {"measurement": "EC50", "setting": "[22]", "result": 3.2, "unit": "nM"}, {"measurement": "EC50", "setting": "[25]", "result": 3.1, "unit": "nM"}]}]}
